Source: PubChem BioAssay AID1963873 (Molecular Pharmacology Branch, DTP, NCI, 2024)

Tested on: 276233-004-R-J1-PDC KRAS spheroids with HUVEC/MSC, viability
Assay: Anticancer human tumor 276233-004-R-J1-PDC patient-derived colon adenocarcinoma cell line growth inhibition [KRAS2]
Details: for viability, T/C: stronger effect = lower value
Source text: Multicellular complex tumor spheroid response to RAS pathway inhibitors in combination with a targeted agents in patient-derived cell lines with oncogenic KRAS variants from multiple cancer types
A high-throughput screen of multi-cell type tumor spheroids was designed to identify active combinations of targeted small molecules and KRAS pathway inhibitors. Complex spheroids include a stromal component modeled by human endothelial cells (HUVEC) and fibroblasts modeled by human mesenchymal stem cells (MSCs). The concentration ranges selected for each drug and investigational agent were based upon clinically achievable concentrations if the clinical Cmax of the agent was known.
Compounds. The drugs and investigational agents: BI-3406 (NSC825286), BAY-293 (NSC824723), batoprotafib (TNO155; NSC825523), sotorasib (AMG 510; NSC818433), MRTX1257 (NSC819558), elimusertib (BAY 1895344; NSC800525), molibresib (GSK525762; NSC774829), temuterkib (LY3214996; NSC803410), venetoclax (NSC766270), alisertib (NSC759677), olaparib (NSC753686), talazoparib (NSC767125), erdafitinib (NSC781556), ipatasertib (NSC767898), cabozantinib (NSC761068), nintedanib (NSC756659), abemaciclib (NSC768073), docetaxel (NSC628503), trametinib (NSC758246), and sapanisertib (NSC764658) were obtained from the National Cancer Institute (NCI) Developmental Therapeutics Program Chemical Repository. The FDA-approved anticancer drug set is available from the Developmental Therapeutics Program. […] The stock solutions were prepared in dimethyl sulfoxide (DMSO, Sigma-Aldrich, St. Louis, MO, cat. D2650) at 800-fold the tested concentration and stored at -70 degrees C prior to their use. All drugs and investigational agents were tested over a range starting from a high concentration at or near the clinical Cmax and decreasing in half-log increments. If the clinical Cmax for an agent had not been determined, the highest concentration tested was 10 microM.
Cell Culture. All cells were maintained in an incubator at 37 degrees C and 5% CO2 with 95% humidity. The PDC lines were cultured according to standard operating procedures established by the NCI PDMR (https://pdmr.cancer.gov/sops/default.htm). Briefly, all PDCs were thawed and cultured in Matrigel-coated flasks prepared with a working solution of 1X Ham's F-12 nutrient mix, without supplementation (Invitrogen, Waltham, MA, cat. 11765054), 100 U/mL penicillin-streptomycin (Invitrogen, cat. 15140122), and 2.5% Matrigel (Corning Inc., Corning, NY, cat. 354248) for the first three passages. All PDCs were cultured in complete DMEM/F-12 media containing advanced DMEM/F-12 (Invitrogen, cat. 12634028), 4.9% defined fetal bovine serum, heat inactivated (HyClone Laboratories Inc., Logan, UT, cat. SH30070.03HI), 389 ng/mL hydrocortisone (Sigma-Aldrich, cat. H4001), 9.7 ng/mL human EGF recombinant protein (Invitrogen, cat. PHG0313), 23.4 microg/mL adenine (Sigma-Aldrich, cat. A2786), 97.3 U/mL penicillin-streptomycin (Invitrogen, cat. 15140122), 1.9 mM L-glutamine (Invitrogen, cat. 25030081), and 9.7 microM Y-27632 dihydrochloride (Tocris Bioscience, Bristol, United Kingdom, cat. 1254). The PDCs were cultured in complete DMEM/F12 media without 9.7 microM Y-27632 dihydrochloride for at least two passages prior to the screen. The established cell line HOP-62 was cultured in RPMI 1640 medium, HEPES (Invitrogen, cat. 22400105) with 10% defined fetal bovine serum (HyClone Laboratories Inc., cat. SH30070.03) and 2 mM L-glutamine (Invitrogen, cat. 25030081). The pooled donor HUVEC were cultured in endothelial cell growth medium 2 (PromoCell, Heidelberg, Germany, cat. C-22011) and the hMSC were cultured in mesenchymal stem cell growth medium 2 (PromoCell, cat. C-28009). For all experiments, HUVEC and hMSC were used at passages </=5, while the malignant cell lines were used at passages </=15. […]

[1] = curve of first compound, second compound 0.1 µM
[2] = curve of first compound, second compound 0.316 µM
[3] = curve of first compound, second compound 1 µM
[4] = curve of first compound, second compound 3.16 µM
[5] = curve of first compound, second compound 10 µM
[6] = second compound 0.1 µM, first compound 0.0316 µM
[7] = second compound 0.1 µM, first compound 0.1 µM
[8] = second compound 0.1 µM, first compound 0.316 µM
[9] = second compound 0.1 µM, first compound 1 µM
[10] = second compound 0.1 µM, first compound 3.16 µM
[11] = second compound 0.1 µM, first compound 10 µM
[12] = second compound 0.316 µM, first compound 0.0316 µM
[13] = second compound 0.316 µM, first compound 0.1 µM
[14] = second compound 0.316 µM, first compound 0.316 µM
[15] = second compound 0.316 µM, first compound 1 µM
[16] = second compound 0.316 µM, first compound 3.16 µM
[17] = second compound 0.316 µM, first compound 10 µM
[18] = second compound 1 µM, first compound 0.0316 µM
[19] = second compound 1 µM, first compound 0.1 µM
[20] = second compound 1 µM, first compound 0.316 µM
[21] = second compound 1 µM, first compound 1 µM
[22] = second compound 1 µM, first compound 3.16 µM
[23] = second compound 1 µM, first compound 10 µM
[24] = second compound 3.16 µM, first compound 0.0316 µM
[25] = second compound 3.16 µM, first compound 0.1 µM
[26] = second compound 3.16 µM, first compound 0.316 µM
[27] = second compound 3.16 µM, first compound 1 µM
[28] = second compound 3.16 µM, first compound 3.16 µM
[29] = second compound 3.16 µM, first compound 10 µM
[30] = second compound 10 µM, first compound 0.0316 µM
[31] = second compound 10 µM, first compound 0.1 µM
[32] = second compound 10 µM, first compound 0.316 µM
[33] = second compound 10 µM, first compound 1 µM
[34] = second compound 10 µM, first compound 3.16 µM
[35] = second compound 10 µM, first compound 10 µM
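Also: cells exposed to agents for seven days before viability read.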
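For viability, T/C in this document: 100% = DMSO vehicle control wells and lower values mean fewer viable cells.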

Row | Structure (SMILES) | IC50 [1] [nM] | IC50 [2] [nM] | IC50 [3] [nM] | IC50 [4] [nM] | IC50 [5] [nM] | viability, T/C [6] [%] | viability, T/C [7] [%] | viability, T/C [8] [%] | viability, T/C [9] [%] | viability, T/C [10] [%] | viability, T/C [12] [%] | viability, T/C [13] [%] | viability, T/C [14] [%] | viability, T/C [15] [%] | viability, T/C [16] [%] | viability, T/C [18] [%] | viability, T/C [19] [%] | viability, T/C [20] [%] | viability, T/C [21] [%] | viability, T/C [22] [%] | also measured
1 | CC1(C)CCC(CN2CCN(c3ccc(C(=O)NS(=O)(=O)c4ccc(NCC5CCOCC5)c([N+](=O)[O-])c4)c(Oc4cnc5[nH]ccc5c4)c3)CC2)=C(c2ccc(Cl)cc2)C1 + CNCc1ccccc1-c1csc(C(C)Nc2nc(C)nc3cc(OC)c(OC)cc23)c1 | > 10000 | 7260 | > 10000 | < 31.6 | < 31.6 | 81.9 | 111 | 105 | 75.4 | 79.5 | 102 | 94.9 | 77.5 | 103 | 69.9 | 110 | 51.5 | 65.7 | 59.4 | 58.5 | viability, T/C [11]: 67.3%; viability, T/C [17]: 42.3%; viability, T/C [23]: 42%; viability, T/C [24]: 0.58%; viability, T/C [25]: 0.56%; viability, T/C [26]: 0.78%; viability, T/C [27]: 0.7%; viability, T/C [28]: 0.34%; viability, T/C [29]: 1.88%; viability, T/C [30]: 0.18%; viability, T/C [31]: 0.21%; viability, T/C [32]: 0.17%; viability, T/C [33]: 0.17%; viability, T/C [34]: 0.39%; viability, T/C [35]: 0.28%
2 | COC(=O)c1ccc2c(C(=Nc3ccc(N(C)C(=O)CN4CCN(C)CC4)cc3)c3ccccc3)c(O)[nH]c2c1 | – | – | – | – | – | – | – | – | – | – | – | – | – | – | – | – | – | – | – | – | viability, T/C (compound 0.0316 µM): 93.3% [middle of 5 runs]; viability, T/C (compound 0.1 µM): 90.3% [middle of 5 runs]; viability, T/C (compound 0.316 µM): 81.9% [middle of 5 runs]; viability, T/C (compound 1 µM): 86.2% [middle of 5 runs]; IC50 (curve of compound): > 10000 nM
3 | CC1COCCN1c1cc(-c2ccnn2C)c2ccnc(-c3ccn[nH]3)c2n1 (stereo not given) + CC1OCC2(CCN(c3cnc(Sc4ccnc(N)c4Cl)c(N)n3)CC2)C1N | > 3160 | 2180 | 2830 | 632 | 737 | 96 | 78.3 | 86.2 | 60.9 | 56.1 | 106 | 84.8 | 74.6 | 61.1 | 45 | 73.2 | 67.9 | 68.5 | 57.4 | 47.5 | viability, T/C (second compound 0.1 µM, first compound 0.01 µM): 107%; viability, T/C (second compound 0.316 µM, first compound 0.01 µM): 76.9%; viability, T/C (second compound 1 µM, first compound 0.01 µM): 87.7%; viability, T/C (second compound 3.16 µM, first compound 0.01 µM): 64.1%; viability, T/C [24]: 86.2%; viability, T/C [25]: 64.8%; viability, T/C [26]: 57%; viability, T/C [27]: 46.8%; viability, T/C [28]: 40.7%; viability, T/C (second compound 10 µM, first compound 0.01 µM): 61.1%; viability, T/C [30]: 66.4%; viability, T/C [31]: 56.6%; viability, T/C [32]: 49.2%; viability, T/C [33]: 52.9%; viability, T/C [34]: 41.1%
4 | COC(=O)c1ccc2c(C(=Nc3ccc(N(C)C(=O)CN4CCN(C)CC4)cc3)c3ccccc3)c(O)[nH]c2c1 + CNCc1ccccc1-c1csc(C(C)Nc2nc(C)nc3cc(OC)c(OC)cc23)c1 | > 10000 | > 10000 | 1140 | < 31.6 | < 31.6 | 95.9 | 80.5 | 87.7 | 70.1 | 87.7 | 95.5 | 91.7 | 71.4 | 74.5 | 70.4 | 59.4 | 58.5 | 56.5 | 54.6 | 12.1 | viability, T/C [11]: 70.1%; viability, T/C [17]: 74.5%; viability, T/C [23]: 14.6%; viability, T/C [24]: 2.33%; viability, T/C [25]: 4.5%; viability, T/C [26]: 7.73%; viability, T/C [27]: 3.3%; viability, T/C [28]: 9.99%; viability, T/C [29]: 5.4%; viability, T/C [30]: 3.64%; viability, T/C [31]: 3.36%; viability, T/C [32]: 4.73%; viability, T/C [33]: 6.01%; viability, T/C [34]: 1.8%; viability, T/C [35]: 0.53%
